We go through 86 molecules from a melting point compilation (Tetko et al.; mined from patent text by program, amines drawn as free bases though some values may be those of a salt).

By melting point is commonly meant the temperature of the solid-liquid transition. `COc1ccc(C2(C#Cc3cccc(-c4nnc(C)o4)c3)CCC(=O)CC2)cc1OC1CCCC1`: the melting point is 139 to 141 °C.

Take `C=CCc1cc(C(C)=O)c(O)cc1OCCCCCC(=O)OC`: the melting point was in the range of 64 to 65 °C.

With `COc1ccc([C@@H]2CN(C)CC[C@@H]2NC(=O)c2ccc(C)cc2)cc1OC` (relative stereo), the melting point was in the range of 145 to 146 °C.

The molecule `O=C(O)c1ccc(-c2nc(-c3cc(Cl)sc3Cl)cs2)cc1` had a melting point of 266 to 267 °C.

Molecule `COc1ccc(S(=O)(=O)N(CC(F)(F)F)c2ccc(Cl)cc2Cc2c(F)cccc2F)cc1OC` displayed a melting point of 70 °C.

Turning to `Oc1ccc2c(c1)SCCc1c-2n(CCCCCN2CCCCC2)c2ccccc12`, the melting point stood at 130 °C.

In the case of `Fc1ccc(-c2nc3ccc(N4CCN(C5CC5)CC4)nn3c2-c2ccnnc2)cc1`, the melting point was 206 to 209 °C.

`Nc1nc(F)nc2c1ncn2C1OC(CO)C(O)C1F` (stereo unspecified) displayed a melting point of 207 to 209 °C.

`C=C(CS(=O)(=O)c1ccccc1)c1ccccc1` returned a melting point of 105 °C.

As to `N[C@H](Cc1ccc2ccccc2c1)C(=O)O`, the melting point lay in the range of 242 to 244 °C.

As for `Cc1cc(CN2CCN(C)CC2)cc2c1Cc1c(-c3ccsc3)n[nH]c1-2`, the melting point lay within 235 to 236 °C.

Molecule `Cc1ccc(-c2ccc(C(=O)Nc3cc4ncc(CN5CCCC5)cc4cc3C)cc2)cc1` returned a melting point of 191 to 193 °C.

The molecule `Cc1ccc(CNC(=O)c2ccc3n2Cc2ccccc2N(C(=O)c2ccc(-c4ccccc4C)c(C)c2)C3)cc1` showed a melting point of 179 to 181 °C.

`COC(=O)Cc1n[nH]c(C)c1[N+](=O)[O-]`: the melting point is 132 to 133 °C.

`O=[N+]([O-])c1cc(CO)c(CO)cc1Oc1ccc(F)cc1F` yielded a melting point of 124 °C.

As to `Nc1n[nH]c2cccc(I)c12`, the melting point was 153 °C.

The molecule `C[C@@H]1Cc2ccsc2[C@H](C)N1CCCCNC(=O)c1ccc(NS(C)(=O)=O)cc1` (relative stereo) returned a melting point of 112 to 116 °C.

As for `O=c1c(OCCCCl)c(-c2ccc(OCc3ccccc3)c(OCc3ccccc3)c2)oc2cc(OCc3ccccc3)ccc12`, the melting point was 136 to 137 °C.

Take `O=C(c1ccccc1)c1c[nH]c2ccc(OCc3ccc4ccccc4n3)cc12`: the melting point lay in the range of 214 to 216 °C.

Regarding `N#Cc1cccc(C2=Nc3cc(O)c(-c4ccc(F)cc4)cc3NC(=O)C2)c1`, the melting point is greater than 250 °C.

Molecule `O=C(O)C(Cc1ccc(O)cc1)NC(=O)C(CS)C(F)(F)F` (stereo unspecified) gave a melting point of 184 to 187 °C.

The molecule `CCCCCS(=O)(=O)NCCCc1ccc(OCCOC)cc1Oc1ncc(C(F)(F)F)cc1Cl` gave a melting point of 87 to 90 °C.

As to `CN1CCC[C@H]1c1cnc(Cl)c(Cl)c1C(O)(c1ccccc1)c1ccccc1`, the melting point lay within 170 to 172 °C.

Consider `Cc1cc2c(s1)S(=O)(=O)N(C(C)(C)C)C2=O`, for which the melting point lay in the range of 80 to 81 °C.

For the molecule `CN(C1CCN(Cc2cccs2)CC1)S(=O)(=O)c1ccc(Nc2nccc(Nc3ccc(F)cc3)n2)cc1`, the melting point lay within 175 to 176 °C.

On to `CCCN(Cc1ccc(-c2ccccc2-c2nnn[nH]2)cc1)c1nc(C)cnc1C(=O)OCC`, for which the melting point was 172 to 174 °C.

The molecule `Cc1ccc(C(=O)OCCN(C)C)cc1-n1c(C)cc(OCc2ccccc2CNC(=O)Nc2cc(C(C)(C)C)nn2-c2cccc(OCCO)c2)c(Cl)c1=O` yielded a melting point of 164 to 165 °C.

`CC(C)(C)OC(=O)N1C[C@H](O)C[C@H]1C(=O)OC(c1ccccc1)c1ccccc1` registered a melting point of 93 to 95 °C.

`O=C(/C=C/c1ccn(S(=O)(=O)c2ccc3ccccc3c2)c1)NO` gave a melting point of 153 °C.

In the case of `CCCCCCCCn1c(=O)c2c(Cl)cc(Cl)cc2n(Cc2ccccc2)c1=O`, the melting point fell in the range of 82 to 85 °C.

Consider `Nc1ccc(S(=O)(=O)c2cc(-c3ccccc3)nc(N3CCCC3)c2)cc1`, for which the melting point lay within 255 to 258 °C.

In turn, `NS(=O)(=O)CC(=O)c1ccc(Cl)cc1Cl` returned a melting point of 136 to 139 °C.

As to `Cc1[nH]cc2c1-c1ccc(Cl)cc1C(c1ccccc1F)=NC2`, the melting point fell in the range of 226 to 227 °C.

Take `COc1ccnc(C(=O)N[C@H]2COC(=O)[C@H](CCOC(=O)c3ccccc3)[C@@H](OC(=O)C(C)C)[C@H](C)OC2=O)c1OCOC(=O)C(C)C`: the melting point is 48 to 50 °C.

Turning to `CS(=O)(=O)O[C@H]1CCNC1=O`, the melting point was 122 to 124 °C.

As for `CSC1CC(c2cc(Cl)c(C)c(Cl)c2)=NNC1=O` (stereo unspecified), the melting point lay in the range of 112 to 115 °C.

The molecule `CCOC(=O)/C(N)=C/C(=O)/C=C/c1ccc(Cl)cc1F` registered a melting point of 102 to 103 °C.

Molecule `COc1cc(-c2nc(-n3c(C)ccc3C)sc2SCC2CCCCC2)c(OC)cc1C` had a melting point of 117 to 118 °C.

On to `CCOCn1c(Nc2cc(C)cc(C)c2)c(CC)c(=O)[nH]c1=O`, for which the melting point lay within 175 to 176 °C.

Molecule `Nc1ccc(OC(F)(F)F)cc1C(=O)O` showed a melting point of 142 to 144 °C.

`COc1ccc(-c2cc(C(N)=O)c(=O)n(CC3CCCC3)n2)cc1` had a melting point of 182 to 183 °C.

For the molecule `O=c1nc(-c2cccc(Sc3ccncc3)n2)sc2ccccc12`, the melting point is 245 to 246 °C.

`CCCCCCCC(=O)OC1CC(=O)NC1=O` (stereo unspecified) had a melting point of 60.5 to 61 °C.

In turn, `CCOc1cc(Oc2ccc(S(C)(=O)=O)nc2)cc2cc(C3=NCC(CC(=O)NC)S3)[nH]c12` (stereo unspecified) registered a melting point of 224 to 225 °C.

Molecule `CC(C)(CCc1noc(=O)[nH]1)c1ccc(C(=O)Nc2cn3cc(C(F)(F)F)ccc3n2)cc1` displayed a melting point of 268 to 270 °C.

The molecule `Clc1ccc2nc(CN3CCN(c4ncccn4)CC3)cn2c1` returned a melting point of 114 to 115 °C.

In the case of `C[C@@H](n1nccn1)[C@](O)(Cn1cncn1)c1ccc(F)cc1F`, the melting point was in the range of 92 to 95 °C.

`O=C(O)c1cnc(N2CCN(S(=O)(=O)c3ccc4ccccc4c3)CC2)nc1` yielded a melting point greater than 260 °C.

`COc1cccc(-c2ccc3c(c2)C(=O)N(Cc2cccnc2)C3=O)c1` had a melting point of 115 to 117 °C.

With `OCCCCc1ccc(OCc2ccccc2)cc1`, the melting point was in the range of 59 to 60 °C.

For the molecule `O=C(c1cccc(Cl)c1)N1CCCN(CC2=Nc3cccc4c(=O)[nH]nc(c34)N2)CC1`, the melting point lay within 147 to 149 °C.

In the case of `OC1CSC(Oc2cccc(-c3ncccc3F)c2)C(O)C1O` (stereo unspecified), the melting point is 150 °C.

In the case of `N#CCn1cc(-c2ccccc2)c(=O)c(-c2ccccc2)c1`, the melting point lay in the range of 221 to 224 °C.

As to `BrCCOc1cccc2c1SCCC2`, the melting point stood at 62 °C.

For the molecule `O=C(NCCNCc1cc2ccc(O)cc2o1)C12CC3CC(CC(C3)C1)C2`, the melting point is 136 to 139 °C.

`COC(=O)c1[nH]c2cccc(C)c2c1Sc1ccc(Cl)cc1` displayed a melting point of 192 to 193 °C.

Turning to `CCOC(=O)CCc1cc(O)nn1CC`, the melting point was in the range of 91 to 92 °C.

Molecule `O=Cc1ccc2c(c1F)OC(c1ccccc1)(c1ccccc1)O2` yielded a melting point of 92 to 94 °C.

As for `Cc1c[nH]c2c(/C=C/C#N)cccc12`, the melting point was in the range of 225 to 227 °C.

`CN1CCCC(Cn2cc(-c3ccccc3)c(O)n2)C1` (stereo unspecified): the melting point was found to be 132 °C.

As to `Cc1nn(C)c(C)c1NC1=NCCO1`, the melting point lay within 131 to 132 °C.

Molecule `Nc1ccccc1Nc1ccc(C(=NO)c2ccccc2)cc1` gave a melting point of 89 to 91 °C.

Turning to `O=C(O)c1ccc(-c2nc(-c3ccc(Cl)s3)cs2)cc1`, the melting point is 283 to 284 °C.

`O=P1(O)Oc2c(-c3ccc(Cl)cc3)cc(Cl)cc2-c2ccc(Cl)cc21`: the melting point was 260 °C.

On to `CC1(O)CCN(C(=O)C(c2ccccc2)n2cnc3[nH]ncc3c2=S)CC1` (stereo unspecified), for which the melting point is 140 to 144 °C.

On to `CC(C)n1nc(Cl)cc1O`, for which the melting point lay within 138 to 140 °C.

For the molecule `COC(=O)CCc1cc(C)c(OP(Oc2c(C)cc(CCC(=O)OC)cc2C(C)(C)C)Oc2c(C)cc(CCC(=O)OC)cc2C(C)(C)C)c(C(C)(C)C)c1`, the melting point was 113 to 114 °C.

With `C#CCn1cc(CO)sc1=O`, the melting point fell in the range of 97 to 98 °C.

Molecule `COc1ccc(C(=O)Nc2cc(NC(=O)c3ccc(OCCN4CCCC4)cc3)ccc2C)cc1OC` yielded a melting point of 258 to 259 °C.

As for `O=C(O)CCCC/C=C(/c1ccc(-c2nc(C(=O)NCCCCC3CCCCC3)co2)cc1)c1cccnc1`, the melting point was in the range of 52 to 56 °C.

In turn, `Oc1ccc(C(=C(Cl)c2ccccc2)c2ccccc2)cc1` returned a melting point of 127 to 129 °C.

In turn, `Clc1ccc(CNc2nc(-c3nccc4ccccc34)nc3ccccc23)cc1` showed a melting point of 221 to 224 °C.

The molecule `O=C(O)CNC(=O)NC(CS)Cc1ccccc1` (single isomer, unassigned; (+)) displayed a melting point of 110 °C.

Regarding `Cc1cccc(O[C@@H]2CCN(S(C)(=O)=O)CC[C@H]2O)c1C` (relative stereo), the melting point was in the range of 112 to 115 °C.

The molecule `FC(F)C(F)(F)Oc1cccc(Nc2nccc(-c3c[nH]c4ccccc34)n2)c1` displayed a melting point of 140 to 142 °C.

With `COCCN1c2ccc([N+](=O)[O-])cc2CS1(=O)=O`, the melting point was in the range of 130 to 132 °C.

For the molecule `CCOC(=O)c1ccc(CCCC2NC(=O)CS2)c(Cl)c1` (stereo unspecified), the melting point lay within 81.5 to 82.5 °C.

For `CC(C)(C)OC(=O)CCP(Br)(c1ccccc1)(c1ccccc1)c1ccccc1`, the melting point worked out at 190 °C.

As to `C[C@@H](C(=O)O)N(C(=O)[C@@H]1CS[C@H](c2ccccc2O)N1C(=O)CCSC(=O)c1ccccc1)c1ccccc1`, the melting point lay within 95 to 100 °C.

On to `C=Cc1cccc(-n2ncc(-c3ccc(S(C)(=O)=O)cc3)c(-c3ccc(F)cc3)c2=O)c1`, for which the melting point fell in the range of 182 to 183 °C.

`COC(=O)[C@@H]1Cc2ccccc2N1C(=O)[C@H](CC(=O)O)NC(=O)C(F)(F)F` registered a melting point of 157 to 158 °C.

For `COC(=O)c1ccc(-c2nn(-c3ccc(C(N)=O)cc3)c3ccccc23)cc1`, the melting point fell in the range of 267 to 269 °C.

In turn, `CN1CCC(C(=O)NO)(S(=O)(=O)c2ccc(Oc3ccc(Cl)cc3)cc2)CC1` displayed a melting point of 52 °C.

`CNC1=Nc2ccc(Cl)cc2C(c2ccc[nH]2)=NC1` gave a melting point of 251 °C.

Turning to `CN1CCC(c2c[nH]c3ccc(NS(=O)(=O)c4ccc(I)cc4)cc23)CC1`, the melting point is greater than 250 °C.

Take `CCN1C(=O)C(C)(C)C(=O)N(C)c2cc(CN(CCn3ccc4oc(C)cc4c3=O)C(C)c3cccnc3)ccc21` (stereo unspecified): the melting point lay within 128 to 132 °C.
